Results as given in patent US7629318B2, “Immunosuppressant compounds, methods and uses related thereto” (priority 2002, dated 2009).
Square brackets hold non-standard residues; d marks the D form. Peptide text beside a SMILES is read from it. * marks the point of attachment. Gly(1-amidinopiperidin-4-yl) = N=C(N)N1CCC([C@H](N)C(=O)O)CC1; Tetrahydroisoquinolin(2-yl) = c1ccc2c(c1)CCN(*)C2; Tic = O=C(O)[C@@H]1Cc2ccccc2CN1; Cha = N[C@@H](CC1CCCCC1)C(=O)O; X4 = OCCOCCN(CCc1ccccc1)*; Nle = CCCC[C@H](N)C(=O)O; X2 = OCCOCCN(Cc1ccccc1)*; X5 = OCCN(Cc1ccccc1)*

Experiments:
[1] = Stability of compounds in mouse blood plasma; type: in vitro ADME
Procedure: (§1) The stability of the peptidomimetic compounds was determined in rat (Charles River Laboratories, Sulzfeld), mouse (Charles River Laboratories, Sulzfeld) and human (Bayerisches Rotes Kreuz, München) blood plasma (E. R. Garrett and M. R. Gardner, J Pharmaceutical Sciences 71 (1982) 14-25).
(§2) Compound stock solutions were diluted into blood plasma to give a final compound concentration of 5 μM and the mixtures were incubated at 37° C. At 0, 6 and 24 hours 1 ml samples were drawn and the plasma proteins were precipitated by the addition of 3 ml acetonitrile p.a. and whirlmixing. The precipitate was pelleted by centrifugation at 2000 g for 5 minutes. The supernatant was evaporated off to dryness and the residue was reconstituted in 400 μl 50% acetonitrile, 0.1% TFA in water.
(§3) PBS controls were prepared for unstable compounds accordingly.

[2] = biological target: Cathepsin D (EC 3.4.23.5 from bovine spleen) (Bos taurus, UniProt P80209)
Procedure: The stability of the peptidomimetic compounds towards lysosomal degradation was examined by incubation with Cathepsin B1 (EC 3.4.22.1 from bovine spleen; Sigma-Aldrich, Taufkirchen; dissolved at 10000 U/l in ddH2O) and D (EC 3.4.23.5 from bovine spleen; Sigma-Aldrich, Taufkirchen; dissolved at 10000 U/l in ddH2O) for four hours at 37° C. using a compound concentration of 50 μM and an enzyme/substrate ratio of 0.4 U/μmol. The samples contained 25 ppm 4-isopropyl benzyl alcohol (IPBA; Sigma-Aldrich, Taufkirchen) as internal standard.
Assay buffer was prepared by adding 35 μl of a 1% IPBA in DMSO solution and 28 μl of a 10000 U/l Cathepsin B1 or Cathepsin D stock solution to 14 ml of 100 mM sodium acetate, 1 mM EDTA, 1 mM DTT, pH 5.00 or 100 mM sodium acetate, pH 4.50, respectively. 8.8 μl of a 5 mM (or 4.4 μl of a 10 mM) compound stock solution (in 10% DMSO/water) were placed into a 1.5 ml Eppendorf tube. The reaction was started by adding 875 μl fully supplemented assay buffer to each tube, whirlmixing and incubation at 37° C. At 0 and 4 hours 400 μl samples were taken and the enzyme was inactivated by addition of 40 μl […] TFA aq. The samples were kept frozen at −20° C. until analysis by RP-HPLC (200 μl injection volume; Nucleosil 100-5 C18, 12.5×4.6 cm; Gradient: 20-50% acetonitrile in 30 min).
Compounds co-eluting with the internal standard during RP-HPLC analysis were tested without the standard as Example 16.

[3] = biological target: Cathepsin B1 (EC 3.4.22.1 from bovine spleen) (Bos taurus, UniProt P07688); details: Cathepsin B, 4 h
[4] = system: T-cell proliferation, lymph node cells of chimeric 0401-IE transgenic mice; details: DR4-LN; for Immunsupressive assays DR4-LN (Max) % Inhibition: maximal inhibition; for IC50: read-out: Immunsupressive assays DR4-LN (IC50)
Procedure: The compounds were tested as follows to inhibit the proliferative T cell response of antigen-primed lymph node cells from mice carrying a chimeric mouse-human class II transgene with an RA-associated peptide binding site, and lack murine class II molecules (Muller et al., 1990; Woods et al., 1994; Current Protocols in Immunology, Vol. 2, 7.21; Ito et al., 1996). Here, the immunization takes place in vivo, but the inhibition and readout are ex vivo. […] These mice lack murine MHC class II, and thus, all Th responses are channelled through a single human RA-associated MHC class II molecule (Ito et al. 1996). These transgenic mice represent a model for testing human class II antagonists.
1.5×10^5 cells are incubated in 0.2 ml wells of 96-well tissue culture plates in the presence of ovalbumin (30 μg per well—half-maximal stimulatory concentration) and a dilution series of the compound under test (from around 0.1 to 200 uM) in serum free HL-1 medium containing 2 mM L-glutamine and 0.1 g/l Kanamycin for three days. Antigen specific proliferation is measured by 3H-methyl-thymidine (1 μCi/well) incorporation during the last 16 h of culture (Falcioni et al., 1999). Cells are harvested, and 3H incorporation measured using a scintillation counter (TopCount, Wallac Finland).

[5] = biological target: DR4Dw14 (DRA1*0101 DRB1*0404) (Homo sapiens, UniProt P01903+P01911, A100R/A169T/F76Y/I96L/K127E/L162R/M171V/N62H/P40V/Q125Y/R42H/S133A/S149N/S66Y/V209L/W38E); assay: Competitive binding to MHC-II protein DR4Dw14; details: 0404; read-out: Protein binding IC50 (nM) 0404
Procedure: (§4) Interaction mixtures lacking the peptidomimetic compound and both peptide mimetic compound and MHC-II were used as positive and negative controls, respectively. All interaction mixtures were set up in duplicates and were incubated for 16 hours at room temperature.
(§5) After washing with PBS, 60 μl of the MHC-II-compound interaction mixtures were transferred from the interaction plate to the appropriate wells of the capture plate and incubated for 2 h at 4° C. The wells were washed six times with 200 μl/well of cooled (4 to 8° C.) 1×DELFIA wash (Wallac-ADL-GmbH, Freiburg), incubated with 100 μl of cooled Europium-streptavidin conjugate (Wallac-ADL-GmbH, Freiburg; diluted 1/1000 with DELFIA assay buffer) for 30 minutes at 4° C., again washed six times with cooled 1×DELFIA wash and, finally, incubated with 200 μl cooled DELFIA enhancement solution (Wallac-ADL-GmbH, Freiburg) for one hour at room temperature before reading the time-resolved europium fluorescence at λex Eu^3+: 340 nm and λem Eu^3+: 613 (615) nm (Wallac Victor^2 1420 Multilabel Counter, Wallac-ADL-GmbH, Freiburg).

[6] = Stability of compounds in rat blood plasma; type: in vitro ADME
Procedure: as §1, §2, §3

[7] = system: T-cell proliferation, DR14-LN; details: for Immunsupressive assays DR14-LN (Max) % Inhibition: maximal inhibition; for IC50: read-out: Immunsupressive assays DR14-LN (IC50)
[8] = biological target: DR4Dw4 (DRA1*0101 DRB1*0401) (Homo sapiens, UniProt P01903+P01911, A100K/A169T/F76Y/I96L/K127E/L162R/M171V/N62H/P40V/Q125Y/R42H/S133A/S149N/S66Y/V115G/V209L/W38E); assay: Competitive binding to MHC-II protein DR4Dw4
Procedure: as §4, §5

[9] = biological target: DR1 (DRA1*0101 DRB1*0101) (Homo sapiens, UniProt P01903+P01911, A100R/D57E/F55L/F60I/F76Y/I96L/L162R/M171V/P40L/Q125E/R42F/V115G/Y59C); assay: Competitive binding to MHC-II protein DR1; details: Protein binding IC50 (nM) 0101, 0101
Procedure: as §4, §5

[10] = Stability of compounds in human blood plasma; type: in vitro ADME
Procedure: as §1, §2, §3

SMILES | Stability (Arbitrary units) Mouse 6 h [1] | Stability (Arbitrary units) Mouse 24 h [1] | Stability (Arbitrary units) Cath D 4 h [2] | Stability (Arbitrary units) Cath B 4 h [3] | Immunsupressive assays DR4-LN (Max) % Inhibition [4] | IC50 [4] | IC50 [5] | Stability (Arbitrary units) Rat 6 h [6] | Stability (Arbitrary units) Rat 24 h [6] | Immunsupressive assays DR14-LN (Max) % Inhibition [7] | IC50 [7] | IC50 [8] | IC50 [9] | Stability (Arbitrary units) Human 6 h [10] | Stability (Arbitrary units) Human 24 h [10]
CCCC[C@H](NC(=O)[C@@H]1Cc2ccccc2CN1C(=O)[C@@H](NC(=O)[C@H](CC1CCCCC1)NC(C)=O)C1CCN(C(=N)N)CC1)C(=O)N1CCc2ccccc2C1 [Compound P77, Ac-Cha-Gpg-Tic-Nle-tetrahydroisoquinoline] (Ac-[Cha][Gly(1-amidinopiperidin-4-yl)][Tic][Nle]-{Tetrahydroisoquinolin(2-yl)}) | 141 Arbitrary units | 181 Arbitrary units | 95 Arbitrary units | 107 Arbitrary units | 100% | 10 µM | 3600 nM | 129 Arbitrary units | 57 Arbitrary units | 99% | 14 µM | 8.7 µM | 1900 nM | 111 Arbitrary units | 114 Arbitrary units
CCCC[C@H](NC(=O)[C@@H]1Cc2ccccc2CN1C(=O)[C@H](CCCNC(=N)N)NC(=O)[C@H](CC1CCCCC1)NC(C)=O)C(=O)N(CCOCCO)Cc1ccccc1 [Compound P98, Ac-Cha-Arg-Tic-Nle-N(Bn)CH2CH2OCH2CH2OH] (Ac-[Cha]R[Tic][Nle]-X2) | 87 Arbitrary units | 54 Arbitrary units | 104 Arbitrary units | 104 Arbitrary units | 67% | 69 µM | 1300 nM | 71 Arbitrary units | 60 Arbitrary units | – | > 200 µM | 4.7 µM | 640 nM | 116 Arbitrary units | 121 Arbitrary units
CCCC[C@H](NC(=O)[C@@H]1Cc2ccccc2CN1C(=O)[C@@H](NC(=O)[C@H](CC1CCCCC1)NC(C)=O)C1CCN(C(=N)N)CC1)C(=O)N(CCO)Cc1ccccc1 [Compound P78, Ac-Cha-Gpg-Tic-Nle-N(Bn)CH2CH2OH] (Ac-[Cha][Gly(1-amidinopiperidin-4-yl)][Tic][Nle]-X5) | 90 Arbitrary units | 113 Arbitrary units | 108 Arbitrary units | 100 Arbitrary units | 97% | 36 µM | 1200 nM | 184 Arbitrary units | 107 Arbitrary units | 100% | 36 µM | 2.6 µM | 430 nM | 73 Arbitrary units | 130 Arbitrary units
CCCC[C@H](NC(=O)[C@@H]1Cc2ccccc2CN1C(=O)[C@H](CCCNC(=N)N)NC(=O)[C@H](CC1CCCCC1)NC(C)=O)C(=O)N(CCOCCO)CCc1ccccc1 [Compound P88] (Ac-[Cha]R[Tic][Nle]-X4) | 125 Arbitrary units | 128 Arbitrary units | 101 Arbitrary units | 94 Arbitrary units | – | 105 µM | 5700 nM | 77 Arbitrary units | 55 Arbitrary units | – | 37 µM | 10 µM | 2000 nM | 133 Arbitrary units | 123 Arbitrary units
